Measured values: US11039613B2, “Germination promoters” (SYNGENTA PARTICIPATIONS AG, priority 2017, dated 2021)
Read-outs that look alike come from different tables or passages of the source.

Key:
[1] = Hydrolytic stability; format: physicochemical; conditions: for half-life: aqueous buffer/acetonitrile solution, pH 9, pH 9, buffer/acetonitrile
Description: Prior to conducting the individual hydrolytic stability assays, stock solutions containing 1000 ppm of each test compound (i.e. compounds III-1 and P1) were prepared in acetonitrile.
The reagents used in the assays were prepared as follows. A 20 mM buffer solution was prepared from a stock solution of 20 mM mixed acetate, borate and phosphate buffer and the pH adjusted to 7 or 9 as required.
Test solutions were prepared in LC vials for each test compound in the following manner: Hydrolytic Stability: Buffer (750 μL)+acetonitrile (250 μL)+compound stock solution (2 to 40 μL).
The buffers were initially dispensed into separate glass LC vials, placed into an autosampler complete with thermostat set at 40° C. and allowed to equilibrate for 30 minutes prior to starting the individual assays.
Analysis was carried out on Waters LCMS systems under reverse phase conditions using 10 cm C18 columns and acetonitrile (HPLC grade) acidified water (0.2% formic acid) mobile phase at a flow rate of 1 ml min-1. Peak detection was at the optimum wavelength (230-250 nm) and peak areas were used for quantification
Reactions were initiated by addition of the compound solution and monitored through a series of repeat injections made directly from the vial into the HPLC system at regular time intervals. Initial and subsequent measurements of peak area attributable to the test compound were used to fit exponential half-lives and calculate first-order rate constants.
Consequently, the percentage of compound remaining was recorded at the last assessment time.

[2] = system: NK Falkone corn seeds; test: Corn seed germination, salt (NaCl, 100 mM) stress and optimal temperature (23° C.); format: in vivo; conditions: salt (NaCl) stress
Description: (§1) NK Falkone corn seeds (harvested in 2015) were sorted by size using a sieve to keep away round seeds.
The corn seeds were placed in 24 well plates (each plate was considered as one experimental unit or replicate). […] 8 replicates (i.e. 8 plates) were used for each treatment characterization. Plates were sealed using seal foil (Polyolefin Art. Nr. 900320) from HJ-BIOANALYTIK. All plates were placed in two carrousels in a climatic chamber at 15° C. The experiment was laid out in a completely randomized design in climatic chamber with 60% Relative Humidity.
(§2) Germination was followed over time by taking photographs at different time points. Image analysis was performed automatically with a macro which was developed using the Image J software. A dynamic analysis of germination was carried out by fitting a logistic curve. Three parameters were calculated from the logistic curve: the T50; the slope and the plateau. All three parameters have a high agronomical relevance and are key requirements to ensure a good early crop-establishment. The T50 and slope for a selection of compounds are outlined in Table 2 below. All the values are expressed as percentages compared to an untreated control. All the three parameters are calculated considering 8 replicates and the kinetic parameters are separately determined for each germination curve. Data in bold indicate germination enhancing statistically significant differences between treated seeds and untreated control (p<0.05). T50 corresponds to the time needed for half of the seed population to germinate. Higher negative %-values indicate faster germination. Slope indicates how synchronous the germination of the seed population is. Positive values indicate steeper curve. The steeper the curve, the better and more uniform the germination is.
The experimental protocol was the same as in Example B1, except that the plates were placed in a climatic chamber at 23° C.

[3] = system: NK Falkone corn seeds; test: Corn seed germination, cold stress (15° C.); format: in vivo; conditions: for T50 (% vs control): control T50 = 110 hours
Description: The effect of compounds of Formula (II-1 and III-1) on the germination of NK Falkone corn seeds under salt and cold stress was evaluated as follows.
as §1
(§3) The corn seeds were placed in 24 well plates (each plate was considered as one experimental unit or replicate). Germination was initiated by the addition of 200 μl of distilled water containing 0.5% DMSO per well. 8 replicates (i.e. 8 plates) were used for each treatment characterization. Plates were sealed using seal foil (Polyolefin Art. Nr. 900320) from HJ-BIOANALYTIK. All plates were placed in two carrousels in a climatic chamber at 15° C. The experiment was laid out in a completely randomized design in climatic chamber with 60% Relative Humidity.
as §2

[4] = system: NK Falkone corn seeds; test: Corn seed germination, osmotic stress (PEG 2%) and cold stress (15° C.); format: in vivo; conditions: osmotic (PEG 2%) and cold 15° C.
Description: as §1, §3, §2
(§4) The effect of compounds of Formula (III-1 and P1) on the germination of NK Falkone corn seeds under salt and cold stress was evaluated as follows.
The experimental protocol was the same as in Example B1, except that germination was initiated by the addition of 200 μl of distilled water containing 0.5% DMSO and 2% PEG per well.

[5] = system: NK Falkone corn seeds; test: Corn seed germination, salt (NaCl, 100 mM) and cold stresses (15° C.); format: in vivo; conditions: cold 15° C. and salt 100 mM NaCl
Description: as §1, §3, §2, §4
The experimental protocol was the same as in Example B1, except that germination was initiated by the addition of 200 μl of distilled water containing 0.5% DMSO and 100 mM NaCl per well.

## CC1=CC(O/C=C2/C(=O)NC3Cc4ccccc4C23)N(c2cc(C(F)(F)F)cc(C(F)(F)F)c2)C1=O (stereo not drawn) [III-1, (1E)-[[1-[3,5-bis(trifluoromethyl)phenyl]-4-methyl-1-oxo-2H-pyrrol-2-yl]oxymethylene]-3,3a,4,8b-tetrahydroindeno[2,1-b]pyrrol-2-one]
[1]; 40° C., less polar isomer, read-out: Hydrolytic stability pH9 (t½), less polar isomer (converted)
  half-life: > 2.46 days
[1]; 40° C., more polar isomer, read-out: Hydrolytic stability pH9 (t½), more polar isomer
  half-life: > 2.46 days
[1]; pH 9, 40° C., at 17.6 hours, less polar isomer
  % remaining, less polar isomer: 97.5% remaining at 17.6 hours
[1]; pH 9, 40° C., at 17.6 hours, more polar isomer
  % remaining, more polar isomer: 94.9% remaining at 17.6 hours
[1]; pH 9, less polar isomer, vs P1
  Hydrolytic stability compared with less polar isomer of P1: more stable
[2]; Rate 0.4 μM
  Slope (% vs control): 1.2 % vs control
  T50 (% vs control): −0.5 % vs control
[2]; Rate 2 μM
  Slope (% vs control): −0.4 % vs control
  T50 (% vs control): −0.2 % vs control
[2]; Rate 10 μM
  Slope (% vs control): 85.8 % vs control
  T50 (% vs control): −11 % vs control
[2]; Rate 50 μM
  Slope (% vs control): 132.5 % vs control
  T50 (% vs control): −15.9 % vs control
[2]; at equivalent rates, vs P1
  Slope compared with closest prior art compound P1: higher slope
  T50 compared with closest prior art compound P1: lower T50
[3]; Rate 0.4 μM
  Slope (% vs control): 7.3 % vs control
  T50 (% vs control): −0.7 % vs control
[3]; Rate 2 μM
  Slope (% vs control): 14.3 % vs control
  T50 (% vs control): 1.3 % vs control
[3]; Rate 10 μM
  Slope (% vs control): 82.6 % vs control
  T50 (% vs control): −8.5 % vs control
[3]; Rate 50 μM
  Slope (% vs control): 175.6 % vs control
  T50 (% vs control): −10.1 % vs control
[3]; at equivalent rates, vs P1
  Slope compared with closest prior art compound P1: higher slope
[4]; Rate 0.4 μM
  Slope (% vs control): 1 % vs control
  T50 (% vs control): 0.8 % vs control
[4]; Rate 2 μM
  Slope (% vs control): 3.9 % vs control
  T50 (% vs control): −0.2 % vs control
[4]; Rate 10 μM
  Slope (% vs control): 7.6 % vs control
  T50 (% vs control): −3.6 % vs control
[4]; Rate 50 μM
  Slope (% vs control): 23.8 % vs control
  T50 (% vs control): −4.0 % vs control
[4]; at equivalent rates, vs P1
  Slope compared with closest prior art compound P1: higher slope
  T50 compared with closest prior art compound P1: lower T50
[5]; Rate 0.4 μM
  Slope (% vs control): −4 % vs control
  T50 (% vs control): −0.5 % vs control
[5]; Rate 2 μM
  Slope (% vs control): 7.4 % vs control
  T50 (% vs control): −1.2 % vs control
[5]; Rate 10 μM
  Slope (% vs control): 54.1 % vs control
  T50 (% vs control): −9.3 % vs control
[5]; Rate 50 μM
  Slope (% vs control): 114.7 % vs control
  T50 (% vs control): −6.1 % vs control
